Laboratory results: the NIST ThermoML archive (doi:10.1021/acs.jced.5b00259)
Numbers after ± are expanded uncertainties.

Experiment: xn = mol fraction of the nth substance listed
Conditions: 100 kPa, Liquid

CCOS(=O)(=O)[O-].CC[NH+]=C(N(C)C)N(C)C [2-ethyl-1,1,3,3-tetramethylguanidinium ethyl sulfate] + CCCO
Conditions	mass density [kg/m3]	viscosity [mPa·s]
293.15 K, x1 = 0.0997	898.6 ± 0.34	4.426 ± 0.35
293.15 K, x1 = 0.2003	964.92 ± 0.25	8.127 ± 0.65
293.15 K, x1 = 0.3066	1016.48 ± 0.26	16.78 ± 1.3
293.15 K, x1 = 0.3996	1051.52 ± 0.37	27.09 ± 2.2
293.15 K, x1 = 0.5016	1082.4 ± 0.51	48.51 ± 3.9
293.15 K, x1 = 0.5989	1106.32 ± 0.66	82.64 ± 14
293.15 K, x1 = 0.6984	1126.59 ± 0.84	134.4 ± 46
293.15 K, x1 = 0.7999	1144.02 ± 1	243.1
293.15 K, x1 = 0.8981	1158.38 ± 1.2	405.5
293.15 K, x1 = 1	1170.76 ± 1.5	673.4
298.15 K, x1 = 0.0997	894.7 ± 0.34	3.9 ± 0.31
298.15 K, x1 = 0.2003	961.16 ± 0.25	7.044 ± 0.56
298.15 K, x1 = 0.3066	1012.78 ± 0.25	13.97 ± 1.1
298.15 K, x1 = 0.3996	1047.86 ± 0.37	22.36 ± 1.8
298.15 K, x1 = 0.5016	1078.78 ± 0.51	38.84 ± 3.1
298.15 K, x1 = 0.5989	1102.73 ± 0.66	63.88 ± 5.5
298.15 K, x1 = 0.6984	1123.01 ± 0.83	100.3 ± 24
298.15 K, x1 = 0.7999	1140.47 ± 1	174.3 ± 76
298.15 K, x1 = 0.8981	1154.86 ± 1.2	278.2
298.15 K, x1 = 1	1167.24 ± 1.5	441.5
303.15 K, x1 = 0.0997	890.9 ± 0.35	3.455 ± 0.28
303.15 K, x1 = 0.2003	957.41 ± 0.26	6.152 ± 0.49
303.15 K, x1 = 0.3066	1009.1 ± 0.25	12.3 ± 0.99
303.15 K, x1 = 0.3996	1044.26 ± 0.36	18.74 ± 1.5
303.15 K, x1 = 0.5016	1075.17 ± 0.5	31.58 ± 2.5
303.15 K, x1 = 0.5989	1099.15 ± 0.65	50.4 ± 0.35
303.15 K, x1 = 0.6984	1119.44 ± 0.82	76.66 ± 11
303.15 K, x1 = 0.7999	1136.93 ± 1	128.5 ± 42
303.15 K, x1 = 0.8981	1151.36 ± 1.2	197.5 ± 94
303.15 K, x1 = 1	1163.76 ± 1.5	302.5
308.15 K, x1 = 0.0997	887.03 ± 0.35	3.077 ± 0.25
308.15 K, x1 = 0.2003	953.65 ± 0.26	5.412 ± 0.43
308.15 K, x1 = 0.3066	1005.42 ± 0.24	10.72 ± 0.86
308.15 K, x1 = 0.3996	1040.62 ± 0.35	15.88 ± 1.3
308.15 K, x1 = 0.5016	1071.58 ± 0.49	26.07 ± 2.1
308.15 K, x1 = 0.5989	1095.58 ± 0.64	40.53 ± 3.3
308.15 K, x1 = 0.6984	1115.89 ± 0.81	59.78 ± 3.7
308.15 K, x1 = 0.7999	1133.41 ± 1	97.5 ± 23
308.15 K, x1 = 0.8981	1147.85 ± 1.2	145.3 ± 54
308.15 K, x1 = 1	1160.28 ± 1.5	214.6
313.15 K, x1 = 0.0997	883.16 ± 0.36	2.751 ± 0.22
313.15 K, x1 = 0.2003	949.88 ± 0.27	4.79 ± 0.38
313.15 K, x1 = 0.3066	1001.73 ± 0.24	9.145 ± 0.73
313.15 K, x1 = 0.3996	1036.98 ± 0.35	13.59 ± 1.1
313.15 K, x1 = 0.5016	1068 ± 0.48	21.82 ± 1.8
313.15 K, x1 = 0.5989	1092.03 ± 0.63	33.1 ± 2.7
313.15 K, x1 = 0.6984	1112.37 ± 0.8	47.59 ± 3.8
313.15 K, x1 = 0.7999	1129.9 ± 1	75.47 ± 11
313.15 K, x1 = 0.8981	1144.35 ± 1.2	110 ± 30
313.15 K, x1 = 1	1156.8 ± 1.4	157.2 ± 63
318.15 K, x1 = 0.0997	879.26 ± 0.36	2.471 ± 0.2
318.15 K, x1 = 0.2003	946.11 ± 0.27	4.266 ± 0.34
318.15 K, x1 = 0.3066	998.04 ± 0.24	7.69 ± 0.62
318.15 K, x1 = 0.3996	1033.37 ± 0.34	11.73 ± 0.94
318.15 K, x1 = 0.5016	1064.43 ± 0.48	18.48 ± 1.5
318.15 K, x1 = 0.5989	1088.5 ± 0.62	27.42 ± 2.2
318.15 K, x1 = 0.6984	1108.86 ± 0.79	38.53 ± 3.1
318.15 K, x1 = 0.7999	1126.4 ± 0.99	59.7 ± 3.7
318.15 K, x1 = 0.8981	1140.87 ± 1.2	84.19 ± 15
318.15 K, x1 = 1	1153.33 ± 1.4	118.3 ± 35
323.15 K, x1 = 0.0997	875.35 ± 0.37	2.228 ± 0.18
323.15 K, x1 = 0.2003	942.33 ± 0.28	3.819 ± 0.31
323.15 K, x1 = 0.3066	994.35 ± 0.24	6.777 ± 0.54
323.15 K, x1 = 0.3996	1029.73 ± 0.33	10.2 ± 0.82
323.15 K, x1 = 0.5016	1060.87 ± 0.47	15.79 ± 1.3
323.15 K, x1 = 0.5989	1084.97 ± 0.62	23.01 ± 1.8
323.15 K, x1 = 0.6984	1105.36 ± 0.79	31.66 ± 2.5
323.15 K, x1 = 0.7999	1122.93 ± 0.98	47.99 ± 3.9
323.15 K, x1 = 0.8981	1137.4 ± 1.2	66.48 ± 6.6
323.15 K, x1 = 1	1149.87 ± 1.4	91.22 ± 19

CCOS(=O)(=O)[O-].CC[NH+]=C(N(C)C)N(C)C [2-ethyl-1,1,3,3-tetramethylguanidinium ethyl sulfate] + CCO
Conditions	mass density [kg/m3]	viscosity [mPa·s]
293.15 K, x1 = 0.0998	910.21 ± 0.35	2.824 ± 0.11
293.15 K, x1 = 0.2003	984.3 ± 0.24	5.826 ± 0.23
293.15 K, x1 = 0.3006	1033.78 ± 0.3	11.42 ± 0.46
293.15 K, x1 = 0.4016	1069.61 ± 0.43	22.83 ± 0.92
293.15 K, x1 = 0.498	1095.76 ± 0.56	40.88 ± 1.7
293.15 K, x1 = 0.5996	1117.54 ± 0.72	73.39 ± 4.9
293.15 K, x1 = 0.6976	1134.51 ± 0.88	127.4 ± 21
293.15 K, x1 = 0.7969	1148.58 ± 1.1	213.6 ± 54
293.15 K, x1 = 0.9008	1160.83 ± 1.3	385.6 ± 140
293.15 K, x1 = 1	1170.76 ± 1.5	673.4 ± 300
298.15 K, x1 = 0.0998	906.2 ± 0.35	2.546 ± 0.1
298.15 K, x1 = 0.2003	980.34 ± 0.25	5.136 ± 0.21
298.15 K, x1 = 0.3006	1030 ± 0.3	9.821 ± 0.4
298.15 K, x1 = 0.4016	1065.96 ± 0.42	19.07 ± 0.77
298.15 K, x1 = 0.498	1092.12 ± 0.55	33.16 ± 1.3
298.15 K, x1 = 0.5996	1113.91 ± 0.71	57.2 ± 1.4
298.15 K, x1 = 0.6976	1130.91 ± 0.87	95.44 ± 11
298.15 K, x1 = 0.7969	1145.02 ± 1.1	154 ± 30
298.15 K, x1 = 0.9008	1157.3 ± 1.3	264.4 ± 77
298.15 K, x1 = 1	1167.24 ± 1.5	441.5 ± 170
303.15 K, x1 = 0.0998	902.18 ± 0.36	2.307 ± 0.093
303.15 K, x1 = 0.2003	976.55 ± 0.25	4.559 ± 0.18
303.15 K, x1 = 0.3006	1026.22 ± 0.29	8.524 ± 0.34
303.15 K, x1 = 0.4016	1062.27 ± 0.42	16.15 ± 0.65
303.15 K, x1 = 0.498	1088.47 ± 0.55	27.11 ± 1.1
303.15 K, x1 = 0.5996	1110.31 ± 0.7	45.41 ± 1.8
303.15 K, x1 = 0.6976	1127.33 ± 0.86	73.08 ± 4.8
303.15 K, x1 = 0.7969	1141.46 ± 1	114.2 ± 16
303.15 K, x1 = 0.9008	1153.79 ± 1.2	187.9 ± 43
303.15 K, x1 = 1	1163.76 ± 1.5	302.5 ± 95
308.15 K, x1 = 0.0998	898.18 ± 0.36	2.096 ± 0.084
308.15 K, x1 = 0.2003	972.66 ± 0.26	4.072 ± 0.16
308.15 K, x1 = 0.3006	1022.45 ± 0.29	7.459 ± 0.3
308.15 K, x1 = 0.4016	1058.6 ± 0.41	13.81 ± 0.56
308.15 K, x1 = 0.498	1084.84 ± 0.54	22.56 ± 0.91
308.15 K, x1 = 0.5996	1106.73 ± 0.69	36.71 ± 1.5
308.15 K, x1 = 0.6976	1123.77 ± 0.85	57.39 ± 1.4
308.15 K, x1 = 0.7969	1137.92 ± 1	86.55 ± 8.3
308.15 K, x1 = 0.9008	1150.29 ± 1.2	134.9 ± 23
308.15 K, x1 = 1	1160.28 ± 1.5	214.6 ± 54
313.15 K, x1 = 0.0998	894.15 ± 0.37	1.91 ± 0.077
313.15 K, x1 = 0.2003	968.7 ± 0.26	3.656 ± 0.15
313.15 K, x1 = 0.3006	1018.66 ± 0.28	6.577 ± 0.27
313.15 K, x1 = 0.4016	1054.91 ± 0.4	11.92 ± 0.48
313.15 K, x1 = 0.498	1081.22 ± 0.53	19.04 ± 0.77
313.15 K, x1 = 0.5996	1103.16 ± 0.68	30.14 ± 1.2
313.15 K, x1 = 0.6976	1120.23 ± 0.84	45.97 ± 1.9
313.15 K, x1 = 0.7969	1134.39 ± 1	67.31 ± 3.5
313.15 K, x1 = 0.9008	1146.78 ± 1.2	103.7 ± 13
313.15 K, x1 = 1	1156.8 ± 1.4	157.2 ± 31
318.15 K, x1 = 0.0998	890.12 ± 0.37	1.746 ± 0.07
318.15 K, x1 = 0.2003	964.81 ± 0.27	3.298 ± 0.13
318.15 K, x1 = 0.3006	1014.86 ± 0.27	5.839 ± 0.23
318.15 K, x1 = 0.4016	1051.24 ± 0.4	10.38 ± 0.42
318.15 K, x1 = 0.498	1077.62 ± 0.52	16.26 ± 0.66
318.15 K, x1 = 0.5996	1099.62 ± 0.67	25.65 ± 1
318.15 K, x1 = 0.6976	1116.66 ± 0.83	37.27 ± 1.5
318.15 K, x1 = 0.7969	1130.88 ± 1	53.38 ± 0.75
318.15 K, x1 = 0.9008	1143.26 ± 1.2	79.6 ± 6.5
318.15 K, x1 = 1	1153.33 ± 1.4	118.3 ± 18
323.15 K, x1 = 0.0998	886.07 ± 0.39	1.601 ± 0.065
323.15 K, x1 = 0.2003	960.91 ± 0.28	2.99 ± 0.12
323.15 K, x1 = 0.3006	1011.05 ± 0.27	5.215 ± 0.21
323.15 K, x1 = 0.4016	1047.55 ± 0.39	9.094 ± 0.37
323.15 K, x1 = 0.498	1074.02 ± 0.52	14.01 ± 0.57
323.15 K, x1 = 0.5996	1096.11 ± 0.67	21.2 ± 0.86
323.15 K, x1 = 0.6976	1113.14 ± 0.83	30.75 ± 1.3
323.15 K, x1 = 0.7969	1127.39 ± 1	43.06 ± 1.8
323.15 K, x1 = 0.9008	1139.76 ± 1.2	62.7 ± 2.5
323.15 K, x1 = 1	1149.87 ± 1.4	91.22 ± 9.6
